Reference: article PMC3772838, “Preclinical Development of a Novel Class of CXCR4 Antagonist Impairing Solid Tumors Growth and Metastases” (PLoS ONE, 2013)
Where two headings read alike, the source gives them in different places. Bridges are numbered along the chain shown (N, C = ends). Where no end group is shown, it is not given here.

Legend:
[1] = tested on: CXCR4; test: CXCL12-induced calcium mobilization assay (Fluo-3 AM); format: cell-based, human; settings: CCRF-CEM cells, 10 µM peptide, percent of fluorescence with CXCL12 alone; at least three experiments
Method: For the calcium efflux studies a 2 mg/mL stock solution of Fluo-3 acetoxymethylester (Invitrogen, Carlsbad, CA) in anhydrous DMSO was used. […] CCRF–CEM cells were resuspended in cell loading buffer (PBS, 1% FCS, 1 mmol/L MgCl2, and 1 mmol/L CaCl2) at 5×10^5 cells/mL. Fluo-3AM and Pluronic acid were added to each sample to increase Fluo-3AM solubility and improve dye loading into the cells. Baseline calcium efflux was established, then chemokines were added as indicated and chemokine-induced calcium efflux was measured.
(A) The amount of peptides or AMD3100 bound was assessed indirectly by flow cytometry using the PE-labelled anti-CXCR4 antibody (clone 12G5). Results are expressed as the percent antibody bound. (B) The Ca^2+ influx assay was performed using CCRF-CEM cells and Fluo-3 AM calcium indicator. CCRF-CEM cells were incubated 30 minutes at 37°C with Fluo-3 AM and 15 minutes with AMD3100 (10 µM)/peptides (10 µM) and then treated with CXCL12. Results are expressed as the percent of Fluo-3 AM fluorescence in presence of CXCL12 alone. Each peptide was tested in at least three different experiments. Double tailed T-Test was used for statistical analyses. Differences were considered significant at P<0.05 compared to control. Control (CTRL).

[2] = tested on: P-ERK1/2; test: CXCL12-induced p-ERK induction (immunoblotting); format: cell-based, human; settings: PES43 cells serum-starved, CXCL12 100 ng/ml, after 5 minutes
Method: Cells were homogenized in lysis buffer (40 mM Hepes pH 7,5, 120 mM NaCl, 5 mM MgCl2, 1 mM EGTA, 0,5 mM EDTA, 1% Triton X-100) containing protease (Complete Tablets- EDTA-free, Roche) and phosphatase inhibitors (20 mM α-glycerol-3-phosphate, 2,5 mM Na-pyrophosphate). The following primary antibodies were used: anti-p-ERK (sc7383, Santa Cruz Biotechnology, Inc., Santa Cruz, CA, USA) and anti-ERK2 (sc 154G, Santa Cruz Biotechnology CA, USA). P-Erk induction was plotted as ratio P-Erk in the presence of CXCL12 (100 ng/ml)/P-Erk in serum free.
Experiments were conducted using PES43 cells. (A) Migration was assayed in 24-well Transwell chambers using inserts with 8-µm pore membrane. […] Migrated cells on the lower surface were fixed, stained with H&E and counted microscopically. The results are expressed as the migration index relative to migration in presence of BSA alone. […] Images were acquired with OKO Time Lapse. […] PES43 cells were serum-starved and incubated with CXCL12 (100 ng/ml) alone or in presence of AMD3100/peptides. Each peptide was tested in at least three different experiments. Double tailed T-Test was used for statistical analyses. Differences were considered significant at P<0.05 compared to control.
PES43 cell lines were serum starved for 16 hours. […] (TIF) Click here for additional data file.

[3] = tested on: human cancer cell lines (SN12C, RXF393, A498 and PES43); test: Cytotoxicity on human cancer cell lines; format: cell-based
[4] = tested on: K7M2 murine osteosarcoma cells; test: K7M2 osteosarcoma lung metastases model; format: in vivo, Balb/c mice; settings: cells pre-treated 30 min with 10 µM peptide; 10 mg/kg IP daily for 15 days
Method: (§1) All mice were obtained from Harlan (Bar Harbor, ME, USA) and their care was in accord with institutional guidelines. Twenty-five 6-8-week-old female C57BL/6 mice were inoculated into the tail vein with 5×10^5 B16–CXCR4 cells pre-treated for 30 minutes with peptide S (10 µM), peptide R (10 µM), peptide I (10 µM), or AMD3100 (10 µM). Six hours later intraperitoneal (IP) treatment started with AMD3100 (1.25 mg/kg) or each peptide (2 mg/kg) in sterile PBS once a day for 10 days. A week later the mice were sacrificed. The experiment was repeated three times. The lung metastases assay was also conducted with K7M2 murine osteosarcoma cells. Twenty-five 6-8-week-old female Balb/c mice were injected via tail vein with 2.5×10^5 K7M2 cells pre-treated for 30 minutes with AMD3100 (10 µM), peptide S (10 µM), peptide R (10 µM), peptide I (10 µM) and animals were treated IP daily for 15 days with 2.5 mg/kg for AMD3100 group and 10 mg/kg for each peptide groups. A week later the mice were sacrificed. Xenograft tumor growth was evaluated using pEGFP-SN12C cells in exponential growth phase subcutaneously injected into the right flank of twenty-five 6-8-week-old female CD1 nude mice. 2×10^6 SN12C-pEGFP were injected in the right flank of each mouse and treated with AMD3100 (1.25 mg/kg) and peptides (2 mg/kg) for 10 days ip. A week later mice were euthanized and tumor volume evaluated through Leica MacroFluo fluorescence stereomicroscope (Leica microsystem, Houston, TX). The experiment was repeated three times. The Istituto Nazionale per lo Studio e la Cura dei Tumori, Fondazione Giovanni Pascale Independent Etical Comettee approved the study (CEI/600/12).
Figure 4 Peptides R, I and S inhibit murine osteosarcoma lung metastases. (A) Twenty-five 6-8-week-old female Balb/c mice were injected via tail vein with 2.5×10^5 K7M2 cells pre-treated for 30 minutes with AMD3100 (10 µM), peptide R (10 µM), or peptide I (10 µM) or peptide S (10 µM). […]

[5] = tested on: SN12C-EGFP renal cancer cells; test: SN12C-pEGFP subcutaneous xenograft tumor growth; format: in vivo, CD1 nude mice; settings: IP 10 days, peptides 2 mg/kg, AMD3100 1.25 mg/kg; measured a week later by fluorescence stereomicroscope; control 65.97±35.1; average
Method: as §1
6 to 8-week-old female CD1 nude mice were injected subcutaneously with 2×10^6 pEGFP-SN12C cells pre-treated with 10 µM AMD3100 or 10 µM of each peptide. Beginning the following day mice were further treated intraperitoneally for 10 days with 1.25 mg/kg AMD3100 or 2 mg/kg of peptides R, I or S. A week later mice were euthanized and tumor volume evaluated directly from the flank of mice using a Leica MacroFluo fluorescence stereomicroscope (Leica microsystem, Houston, TX) (A). The experiments were repeated three times. B. SN12C-PEGFP cells migration toward CXCL12 in the presence of AMD3100 or Peptide R, S and I.

Row | Substance | CXCL12-induced calcium efflux (Fluo-3 AM fluorescence) [1] | CXCL12-mediated p-ERK induction [2] | cytotoxicity [3] | K7M2 lung metastases [4] | tumor volume of SN12C-GFP xenograft [5] | cytotoxicity ([3]; SN12C, RXF393, A498 and PES43, Figure S2)
1 | Arg-Ala-[Cys-Arg-Phe-Phe-Cys] (RACRFFC; disulfide 3-7) [Peptide R, CXCL12-mimetic disulfide-cyclic peptide] | 51.25 % of control | reduced | no toxicity | reduced lung metastases | 47.00±16.88 mm^3 | –
2 | Arg-Ala-[Cys-Arg-His-Trp-Cys] (RACRHWC; disulfide 3-7) [Peptide S, CXCL12-mimetic disulfide-cyclic peptide] | 49.75 % of control | reduced | no toxicity | reduced lung metastases | 44.51±26.4 mm^3 | –
3 | [Cys-Trp-His-Arg-Cys] (CWHRC; disulfide 1-5) [Peptide I, v-MIP-II mimetic disulfide-cyclic peptide] | Minimal effect | reduced | – | reduced lung metastases | 39.19±25.8 mm^3 | no toxicity
